Assays:
[1] = test system: hair papilla cell spheroids; assay: Hair papilla cell proliferation test by three-dimensional culture (Example 6); assay type: cell-based, C57BL/6N mouse; conditions: final concentrations 0.05 wt %, 0.1 wt %, and 1 wt %, cultured for 3 days; FIG. 19
Method: In this Example, hair papilla cells prepared in a similar manner to Example 5 were seeded in a 96-well U-bottom microplate for cell culture (from Sumitomo Bakelite Co., Ltd.) at 6,000 cells/well and centrifuged with a plate centrifuge at room temperature and at a rotating speed of 1,000 rpm for 1 minute to yield three-dimensional hair papilla cell spheroids. The spheroids were cultured for 3 days by using each of test solutions A1 to A3 that were hair papilla cell culture media to which D-chiro-inositol dissolved in PBS was added at a final concentration of 0.05 wt %, 0.1 wt %, or 1 wt %; test solutions B1 to B3 that were hair papilla cell culture media to which myo-inositol dissolved in PBS was added at a final concentration of 0.05 wt %, 0.1 wt %, or 1 wt %; and a negative control that was a hair papilla cell culture medium to which PBS alone was added. The spheroids after culturing for 3 days were imaged by using a VHX2000 digital microscope (Keyence Corporation), and the area of the spheroids was calculated by using a digital microscope analysis tool. By calculating a spheroid area increase rate in the test solutions A1 to A3 and B1 to B3, relative to an area increase rate in the negative control as 100%, the proliferation of hair papilla cells in conditions further close to in vivo condition was quantified.

[2] = test system: transplanted mice (hair follicles of haired mice transplanted into the back of nude mice); assay: Hair shaft growth in nude mice transplanted with hair follicles of haired mice (Example 1); assay type: in vivo; conditions: for Hair shaft growth rate: topical 4 times per day
Method: Hair follicles (surgically prepared) of haired mice were transplanted into the back of nude mice (from Sankyo Labo Service Corporation, Inc.) to produce transplanted mice manipulated such that each hair can be distinguished and a plurality of hair cycles can be observed. First, a 50% ethanol aqueous solution (12.5 μl, not containing the agent) was applied to the transplanted mice 4 times per day during new hair growth in the first hair cycle to obtain reference data of a hair cycle. After the hair had shed following the end of the first hair cycle, a 50% ethanol aqueous solution (12.5 μl) containing a predetermined amount of the agent was applied to the mice 4 times per day to obtain data on effects of the agent. After the hair had shed following the end of the second hair cycle, a 50% ethanol aqueous solution (12.5 μl) containing the agent in the same amount as that in the second hair cycle was applied to the mice in a similar manner to the second hair cycle to obtain reproducibility data on effects of the agent. As the agent, D-chiro-inositol (from Wako Pure Chemical Industries Ltd.) and its stereoisomers as chiro-inositol, L-chiro-inositol (from Tokyo Chemical Industry Co., Ltd.), myo-inositol (from Wako Pure Chemical Industries Ltd.), allo-inositol (cis-1,2,3,4-trans-5,6-cyclohexaneheaxol) (from Tokyo Chemical Industry Co., Ltd.), epi-inositol (cis-1,2,3,4,5-trans-6-cyclohexanehexaol) (from Tokyo Chemical Industry Co., Ltd.), muco-inositol (cis-1,2,4,5-trans-3,6-cyclohexanehexaol) (from Tokyo Chemical Industry Co., Ltd.), and scyllo-inositol (cis-1,3,5-trans-2,4,6-cyclohexanehexaol) (from Tokyo Chemical Industry Co., Ltd.) were used. For each agent solution, the lengths of hair shafts were measured every 2 to 3 days, an average length of hair shafts that changed day by day was plotted as one dot at each time point in a graph, and a similar plotting was repeated for 3 to 4 mice. The results were shown in Tables 1 to 14 and FIGS. 1 to 14.

[3] = test system: crab-eating macaque (Macaca fascicularis); assay: New hair growth test in monkey (Example 4); assay type: in vivo; conditions: 1 wt % in 50% ethanol, 8 weeks
Source text: A crab-eating macaque (Macaca fascicularis) is a monkey (class: Mammalia, order: Primates, family: Cercopithecidae, genus: Macaca) that has many similarities to humans, such as the morphology of the temporomandibular joint, and is frequently employed as a laboratory animal for morphological studies and medication studies due to its easy breeding and rearing. The crab-eating macaque is known for the replacement of the body hair in a six-month cycle in a year. Among aged female monkeys that had babies repeatedly and aged male monkeys of low social status, individuals with observed symptoms of hair thinning or sparse hair emerge with low frequency. […] In this Example, to an aged crab-eating macaque (19 years of age, male) having sparse body hair of the head, a test solution A in which D-chiro-inositol (from Wako Pure Chemical Industries Ltd.) was dissolved in 50% ethanol at a concentration of 1 wt % and a test solution B in which myo-inositol was dissolved in 50% ethanol at a concentration of 1 wt % were applied every day to about 4 cm^2-sparse hair regions (2 cm×2 cm) in both left and right sides across the median line of the head of the macaque. The application (once/day, 150 μl) was performed over 8 weeks, and 50% ethanol was applied as a negative control. At the end of 8 weeks, hair shafts in the applied regions were cut with hair clippers while leaving 2 to 3 mm from pores toward the outside of the body, and the total number of hair protruded from the pores in the applied regions was counted. A new hair growth rate was calculated as an increase rate in the number of hair at the end of 8 weeks, relative to the number of hair protruded from pores in the same regions before the application at the start of the test as 100%.

[4] = 1 wt %, second hair cycle vs first hair cycle (vehicle)
[5] = 1 wt %, third hair cycle vs first hair cycle (vehicle)
[6] = 5 wt %, second hair cycle vs first hair cycle (vehicle)
[7] = 5 wt %, third hair cycle vs first hair cycle (vehicle)
[8] = 10 wt %, second hair cycle vs first hair cycle (vehicle)
[9] = 10 wt %, third hair cycle vs first hair cycle (vehicle)

## OC1C(O)C(O)C(O)C(O)C1O [D-chiro-inositol]
[1]
  Hair papilla cell spheroid area vs negative control: increased significantly
[2]; 0.01 wt %
  Hair shaft growth rate and hair shaft maximum length, difference from the reference data: marginally significant differences
[2]; 0.01 wt % in 50% ethanol, second hair cycle
  Hair shaft growth rate: 0.30 ± 0.03 mm/day
[2]; 0.01 wt % in 50% ethanol, third hair cycle (reproducibility)
  Hair shaft growth rate: 0.40 ± 0.06 mm/day
[2]; 0.01 wt %, second hair cycle
  Hair shaft maximum length: 4.8 ± 0.4 mm
[2]; 0.01 wt %, third hair cycle (reproducibility)
  Hair shaft maximum length: 4.7 ± 0.3 mm
[2]; 0.1 wt % in 50% ethanol, second hair cycle
  Hair shaft growth rate: 0.30 ± 0.03 mm/day
[2]; 0.1 wt % in 50% ethanol, third hair cycle (reproducibility)
  Hair shaft growth rate: 0.40 ± 0.06 mm/day
[2]; 0.1 wt %, growth rate not significantly different, maximum length increased significantly in third hair cycle
  Hair growth activity: hair growth activity was shown
[2]; 0.1 wt %, second hair cycle
  Hair shaft maximum length: 4.7 ± 0.4 mm
[2]; 0.1 wt %, second hair cycle vs first hair cycle (vehicle)
  Hair shaft maximum length relative to reference data: 101%
[2]; 0.1 wt %, third hair cycle (reproducibility)
  Hair shaft maximum length: 4.8 ± 0.4 mm
[2]; 0.1 wt %, third hair cycle vs first hair cycle (vehicle)
  Hair shaft maximum length relative to reference data: 105%
[2]; 1 wt % in 50% ethanol, second hair cycle
  Hair shaft growth rate: 0.47 ± 0.01 mm/day
[2]; 1 wt % in 50% ethanol, third hair cycle (reproducibility)
  Hair shaft growth rate: 0.48 ± 0.04 mm/day
[2]; 1 wt %, second hair cycle
  Hair shaft maximum length: 5.7 ± 0.4 mm
[2]; [4]
  Hair shaft growth rate relative to reference data: 121%
  Hair shaft maximum length relative to reference data: 110%
[2]; 1 wt %, third hair cycle (reproducibility)
  Hair shaft maximum length: 6.0 ± 0.4 mm
[2]; [5]
  Hair shaft growth rate relative to reference data: 123%
  Hair shaft maximum length relative to reference data: 116%
[2]; 5 wt % in 50% ethanol, second hair cycle
  Hair shaft growth rate: 0.46 ± 0.04 mm/day
[2]; 5 wt % in 50% ethanol, third hair cycle (reproducibility)
  Hair shaft growth rate: 0.49 ± 0.07 mm/day
[2]; 5 wt %, second hair cycle
  Hair shaft maximum length: 5.1 ± 0.3 mm
[2]; [6]
  Hair shaft growth rate relative to reference data: 128%
  Hair shaft maximum length relative to reference data: 116%
[2]; 5 wt %, third hair cycle (reproducibility)
  Hair shaft maximum length: 5.1 ± 0.4 mm
[2]; [7]
  Hair shaft growth rate relative to reference data: 136%
  Hair shaft maximum length relative to reference data: 116%
[2]; 10 wt % in 50% ethanol, second hair cycle
  Hair shaft growth rate: 0.46 ± 0.06 mm/day
[2]; 10 wt % in 50% ethanol, third hair cycle (reproducibility)
  Hair shaft growth rate: 0.63 ± 0.05 mm/day
[2]; 10 wt %, 5 wt %, or 1 wt % as the agent
  Hair shaft growth rate and hair shaft maximum length relative to the reference data: increased significantly
[2]; 10 wt %, second hair cycle
  Hair shaft maximum length: 5.6 ± 0.5 mm
[2]; [8]
  Hair shaft growth rate relative to reference data: 154%
  Hair shaft maximum length relative to reference data: 142%
[2]; 10 wt %, third hair cycle (reproducibility)
  Hair shaft maximum length: 5.9 ± 0.5 mm
[2]; [9]
  Hair shaft growth rate relative to reference data: 210%
  Hair shaft maximum length relative to reference data: 149%
[3]; data not shown
  Hair shaft thickness in applied region vs test solution B and negative control: remarkably thicker
[3]; once/day 150 μl, sparse hair region of head, number of hair before application = 100%
  New hair growth rate: 175.9%

— patent US11534377B2, “Hair growth agent” (KOBAYASHI PHARMACEUTICAL CO., LTD., priority 2016, dated 2022)
